From ChEMBL document CHEMBL1921797, “Synthesis and biological evaluation of arylated novobiocin analogs as Hsp90 inhibitors” (Bioorg Med Chem Lett, 2011)
Activity calls are given as the source filed them. No cut-off for these calls is given here.

Key:
[1] = tested on: SK-BR-3; assay: Antiproliferative activity against human SKBR3 cells; format: functional, cell-based
[2] = tested on: MCF7; assay: Antiproliferative activity against human MCF7 cells; format: functional, cell-based
[3] = tested on: MCF7; assay: Ratio of IC50 for human SKBR3 cells to IC50 for human MCF7 cells; format: functional
[4] = biological target: Heat shock protein HSP 90-beta (Homo sapiens) (UniProt P08238); assay: Inhibition of human C-terminal domain of Hsp90 in MCF7 cells assessed as Her2 degradation at 0.1 to 100 uM by Western blotting; format: cell-based
Heat shock protein HSP 90-beta (Homo sapiens), sequence (P08238 whole entry, the tested form may be a part): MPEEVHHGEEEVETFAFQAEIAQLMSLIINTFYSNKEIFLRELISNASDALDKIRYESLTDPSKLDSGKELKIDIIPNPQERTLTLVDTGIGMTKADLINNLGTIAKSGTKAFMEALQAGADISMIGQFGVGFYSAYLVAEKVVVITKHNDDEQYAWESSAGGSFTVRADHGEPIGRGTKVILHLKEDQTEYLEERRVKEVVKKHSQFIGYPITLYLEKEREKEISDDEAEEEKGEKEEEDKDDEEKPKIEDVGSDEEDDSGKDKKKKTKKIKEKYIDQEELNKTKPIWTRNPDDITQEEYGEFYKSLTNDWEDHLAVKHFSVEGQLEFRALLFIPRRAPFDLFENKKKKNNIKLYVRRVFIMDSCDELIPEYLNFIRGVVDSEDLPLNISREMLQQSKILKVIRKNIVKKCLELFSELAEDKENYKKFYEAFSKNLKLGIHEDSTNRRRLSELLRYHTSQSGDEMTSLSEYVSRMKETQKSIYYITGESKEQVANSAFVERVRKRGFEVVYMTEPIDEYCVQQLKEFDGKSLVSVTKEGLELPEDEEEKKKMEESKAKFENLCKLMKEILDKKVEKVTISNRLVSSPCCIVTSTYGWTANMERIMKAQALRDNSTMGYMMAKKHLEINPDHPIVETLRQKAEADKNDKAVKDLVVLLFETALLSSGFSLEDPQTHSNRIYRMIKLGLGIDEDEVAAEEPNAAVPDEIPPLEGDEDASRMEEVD

[5] = biological target: Heat shock protein HSP 90-beta (Homo sapiens) (UniProt P08238); assay: Inhibition of human C-terminal domain of Hsp90 in MCF7 cells assessed as Raf degradation at 0.1 to 100 uM by Western blotting; format: cell-based
[6] = biological target: Heat shock protein HSP 90-beta (Homo sapiens) (UniProt P08238); assay: Inhibition of human C-terminal domain of Hsp90 in MCF7 cells assessed as Akt degradation at 0.1 to 100 uM by Western blotting; format: cell-based
[7] = biological target: Heat shock protein HSP 90-beta (Homo sapiens) (UniProt P08238); assay: Induction of human Hsp90 activity in MCF7 cells at 0.1 to 100 uM by Western blotting; format: cell-based

IC50 [1] [µM] | IC50 [2] [µM] | SMILES | also measured
11.1 | 13.2 | COc1ccc(Cc2ccc3cc(NC(=O)c4ccc(O)c(CC=C(C)C)c4)c(=O)oc3c2C)cc1 | 
> 100 | > 100 | COc1cccc(Oc2ccc3cc(NC(=O)c4ccc(OC)c(-c5cccc(OC)c5)c4)c(=O)oc3c2C)c1 | 
33.1 | 62.8 | COc1cccc(Oc2ccc3cc(NC(=O)c4ccc(O)c(CC=C(C)C)c4)c(=O)oc3c2C)c1 | 
> 100 | 13.9 | COc1ccc(Cc2ccc3cc(NC(=O)c4ccc(O)c(CC=C(C)C)c4)c(=O)oc3c2C)cc1OC | Ratio IC50 [3]: 10
21.5 | 32.1 | CC(C)=CCc1cc(C(=O)Nc2cc3ccc(Cc4ccc(O)cc4)c(C)c3oc2=O)ccc1O | 
4.09 | 7.11 | COc1cccc(-c2cc(C(=O)Nc3cc4ccc(Cc5ccccc5)c(C)c4oc3=O)ccc2OC)c1 | 
72.4 | 75 | CC(=O)Oc1ccc(C(=O)Nc2cc3ccc(Oc4ccc(C(C)(C)C)cc4)c(C)c3oc2=O)cc1CC=C(C)C | 
> 100 | > 100 | COc1ccc(Nc2ccc3cc(NC(=O)c4ccc(O)c(CC=C(C)C)c4)c(=O)oc3c2C)cc1 | 
14.2 | 14.9 | COCOc1ccc(Cc2ccc3cc(NC(=O)c4ccc(OC(C)=O)c(CC=C(C)C)c4)c(=O)oc3c2C)cc1OC | 
68.3 | 20.6 | CC(C)=CCc1cc(C(=O)Nc2cc3ccc(Oc4ccc(C(C)(C)C)cc4)c(C)c3oc2=O)ccc1O | 
19.5 | 18.2 | COc1ccc(Oc2ccc3cc(NC(=O)c4ccc(OC(C)=O)c(CC=C(C)C)c4)c(=O)oc3c2C)cc1 | 
> 100 | > 100 | COc1ccc(Nc2ccc3cc(NC(=O)c4ccc(OC(C)=O)c(CC=C(C)C)c4)c(=O)oc3c2C)cc1 | 
14.8 | 19.7 | COc1cccc(Cc2ccc3cc(NC(=O)c4ccc(O)c(CC=C(C)C)c4)c(=O)oc3c2C)c1 | 
> 100 | > 100 | COc1cccc(-c2cc(C(=O)Nc3cc4ccc(Oc5ccc(C(C)(C)C)cc5)c(C)c4oc3=O)ccc2OC)c1 | 
13.7 | 15.7 | COc1cccc(Oc2ccc3cc(NC(=O)c4ccc(OC(C)=O)c(CC=C(C)C)c4)c(=O)oc3c2C)c1 | 
23.5 | 11.5 | COc1ccc(Cc2ccc3cc(NC(=O)c4ccc(OC(C)=O)c(CC=C(C)C)c4)c(=O)oc3c2C)cc1 | inhibition [4]: Active; inhibition [5]: Active; inhibition [6]: Active; Activity [7]: inactive
> 100 | > 100 | COc1ccc(Oc2ccc3cc(NC(=O)c4ccc(OC)c(-c5cccc(OC)c5)c4)c(=O)oc3c2C)cc1 | 
> 100 | > 100 | COc1ccc(Nc2ccc3cc(NC(=O)c4ccc(OC)c(-c5cccc(OC)c5)c4)c(=O)oc3c2C)cc1 | 
> 100 | > 100 | COc1ccc(Cc2ccc3cc(NC(=O)c4ccc(OC)c(-c5cccc(OC)c5)c4)c(=O)oc3c2C)cc1 | 
10.7 | 14.6 | COc1cc(Cc2ccc3cc(NC(=O)c4ccc(O)c(CC=C(C)C)c4)c(=O)oc3c2C)ccc1O | 
42.7 | 6.51 | COc1ccc(Oc2ccc3cc(NC(=O)c4ccc(O)c(CC=C(C)C)c4)c(=O)oc3c2C)cc1 | inhibition [4]: Active; inhibition [5]: Active; inhibition [6]: Active; Activity [7]: inactive
13.5 | 22.7 | COCOc1ccc(Cc2ccc3cc(NC(=O)c4ccc(OC(C)=O)c(CC=C(C)C)c4)c(=O)oc3c2C)cc1 | 
